Results reported in paper PMC12040169 (PLOS Biology, 2025).

assay: in vitro; conditions: human, hela cells, % viability

Row | SMILES | viability at 28.5 h, 10 µM [%]
1 | N#Cc1cc2c(nc1SCC(O)COCc1ccccc1)CCCC2 (centres unmarked) [CBK265967] | 104
2 | Clc1ccc(-c2csc3ncnc(SCc4ccco4)c23)cc1 [CBK265972] | 90.5
3 | CCOC(=O)c1cnc2c(C)cc(Cl)cc2c1N1CCN(Cc2ccccc2)CC1 [CBK265975] | 108
4 | CC(C)C12CN3CC(C(C)C)(CN(C1)C3c1ccc3c(c1)OCO3)C2=O (centres unmarked) [CBK265981] | 100
5 | O=C(CN1C(=O)c2ccccc2S1(=O)=O)N(Cc1ccccc1)Cc1ccccc1 [CBK265982] | 107
6 | O=C(O)CCc1ccc(-c2ccc(Cl)cc2)n1Cc1ccco1 [CBK265984] | 92.4
7 | COc1ccc(-n2c(Cc3ccccc3)nnc2SCC(=O)c2ccccc2)cc1 [CBK265989] | 105
8 | Cc1cc(C)c(NC(=O)CSc2nnc(Cc3ccccc3)n2C)c(C)c1 [CBK265990] | 110
9 | Cc1ccc(S(=O)(=O)NCC(=O)N2CCN(Cc3ccccc3)CC2)cc1 [CBK265991] | 104
10 | O=C(Nc1ccccc1N1CCOCC1)c1ccc(OCc2ccccc2)cc1 [CBK265992] | 96.3
11 | COC(=O)COc1ccc(S(=O)(=O)N2CCC(C(N)=O)CC2)cc1 [CBK265993] | 96.7
12 | CCc1ccc(OCC(=O)O/N=C(\N)c2ccncc2)c(Br)c1 [CBK265994] | 86.6
13 | Cc1ccc2nc(SCC(=O)O)nc(C)c2c1 [CBK265996] | 94.1
14 | CC(=O)Oc1ccc(C(=O)Nc2ccc3c(c2)C(=O)N(CCC(=O)O)C3=O)cc1 [CBK265997] | 105
15 | Cn1c(COc2ccccc2Cl)nnc1SCC(=O)N1c2ccccc2Sc2ccccc21 [CBK266001] | 96.5
16 | O=C(COc1cccc2ccccc12)Nc1ccc(O)cc1 [CBK266002] | 88.6
17 | COC(=O)c1c(C)[nH]c(C(=O)CSc2ncnc3sc(C)c(-c4ccccc4)c23)c1C [CBK266004] | 99.5
18 | CC(NC(=O)Cn1c(-c2nonc2N)nc2ccccc21)c1ccccc1 (centres unmarked) [CBK266006] | 106
19 | COc1ccc(OC)c(NC(=O)c2c(NCc3ccncc3)sc3c2CCC3)c1 [CBK266007] | 90.1
20 | O=C(COc1ccccc1[N+](=O)[O-])Nc1ccc(Br)cc1C(=O)O [CBK266008] | 84.9
21 | COc1ccc(S(=O)(=O)Nc2ccc(S(=O)(=O)Nc3nccs3)cc2)cc1C [CBK266011] | 101
22 | CC(C)(c1ccccc1)c1ccc(OCC(=O)Nc2cccc(C(=O)O)c2)cc1 [CBK266014] | 102

Row | SMILES | viability at 28.5 h, 10 µM [%]
23 | CCOC(=O)c1ccc(-n2c(CCC(=O)O)ccc2-c2cccs2)cc1O [CBK266015] | 103
24 | CCOc1ccc(-n2c(SCc3ccc(Br)cc3)nnc2-c2ccncc2)cc1 [CBK266017] | 103
25 | NC(=O)Nn1c(CCC(=O)O)ccc1-c1cccs1 [CBK266019] | 93.1
26 | Cc1ccc(O)c(Nc2ncnc3ccccc23)c1 [CBK266020C] | 93.2
27 | CCOC(=O)c1cnc2c(C)cc(C)cc2c1NCCCN(C)C [CBK266021] | 76.5
28 | O=C(COc1ccc(S(=O)(=O)NC2CCCCC2)cc1)Nc1cccc2ccccc12 [CBK266023] | 100
29 | c1ccc(-c2ccc(OCCCCN3CCNCC3)cc2)cc1 [CBK266028G] | 95.8
30 | CC(Oc1cccc(Cl)c1)C(=O)O/N=C(\N)Cc1cccc2ccccc12 (centres unmarked) [CBK266033] | 90.3
31 | CCOC(=O)C1CCN(Cc2c(O)c3ccccc3oc2=O)CC1 [CBK266035] | 70.6
32 | Cc1ccc(OCC(=O)Nc2ccc3c(c2)oc2ccccc23)cc1[N+](=O)[O-] [CBK266036] | 100
33 | COC(=O)c1ccccc1NC(=O)COc1ccc(Cl)c2cccnc12 [CBK266037] | 104
34 | Cc1[nH]c2ccccc2c1C(c1ccccc1OCC(=O)O)c1c(C)[nH]c2ccccc12 [CBK266038] | 109
35 | O=C(NCC1CCCO1)c1ccccc1Sc1ccc([N+](=O)[O-])cc1Cl (centres unmarked) [CBK266041] | 88.8
36 | CN(C)C(=O)CSc1nnc(-c2cccc3ccccc23)n1-c1ccccc1 [CBK266044] | 92
37 | Cc1cc(C)c(OCCNC(=O)c2ccccc2Sc2ccccc2C#N)c(C)c1 [CBK266048] | 97.7
38 | Cc1cc(Cl)c(OCCN2CCCCCC2)c(Br)c1 [CBK266049G] | 91.7
39 | O=C(CSc1nnc(Cc2cccc3ccccc23)n1-c1ccccc1)NC1CCCCC1 [CBK266052] | 102
40 | COc1ccc(NC(=O)CSc2nnc(C(O)c3ccccc3)n2C)cc1 (centres unmarked) [CBK266053] | 110
41 | Cn1c(NC(=O)CSc2nnc(Cc3cccc4ccccc34)o2)cc(=O)n(C)c1=O [CBK266055] | 115
42 | Cc1cc(Cl)cc(C)c1OCCN1CCNCC1 [CBK266057G] | 84.4
43 | COc1cccc(NC(=O)CSCc2n[nH]c(=O)[nH]2)c1 [CBK266058] | 95.8
44 | O=C(NC(=S)Nc1ccc(N2CCN(Cc3ccccc3Cl)CC2)cc1)c1ccco1 [CBK266066] | 101

Row | SMILES | viability at 28.5 h, 10 µM [%]
45 | Cc1nn(Cc2ccccc2)c(C)c1NC(=O)CSc1nc2sc3c(c2c(=O)n1C)CCC3 [CBK266069] | 96.4
46 | Clc1ccc(SCCN2CCNCC2)cc1 [CBK266077G] | 94.2
47 | Cc1cc(C)c(OCCOCCN2CCNCC2)c(Br)c1 [CBK266079G] | 99.6
48 | CC(=O)OC(COc1ccc2ccccc2c1Br)Cn1cnc2ccccc21 (centres unmarked) [CBK266083] | 84.6
49 | Cc1cc(C)c2c(=O)[nH]c(SCC(=O)c3ccc(F)c(C)c3)nc2n1 [CBK266087] | 102
50 | OCCN1CCN(Cc2nc(O)c3ccccc3n2)CC1 [CBK266089] | 98.5
51 | CC(C)Oc1cccc(C(=O)Nc2ccc(N3CCN(C)CC3)cc2)c1 [CBK266090] | 90.5
52 | CN(C)C1(c2nnnn2CCOC(=O)Nc2ccc(Cl)cc2)CCCCC1 [CBK266093] | 94.5
53 | COc1ccccc1NC(=O)CSc1nc(O)c2c(C)cc(C)nc2n1 [CBK266095] | 91.8
54 | CC1(C)CC(=O)C2=C(C1)Nc1nc(SCc3ccc([N+](=O)[O-])cc3)[nH]c(=O)c1C2c1cccnc1 (centres unmarked) [CBK266096] | 108
55 | O=C(CSc1nnc(-c2cccnc2)n1-c1ccc(Br)cc1)Nc1cc(C(F)(F)F)ccc1Cl [CBK266099] | 96.5
56 | O=C(O)CCC(=O)Nc1ccccc1C(=O)N1CCCCC1 [CBK266100] | 99.5
57 | COC(=O)Cc1ccc(NC(=S)N2CCC(C(N)=O)(N3CCCCC3)CC2)cc1 [CBK266101] | 97.6
58 | COc1nnc(-c2ccc(N3CCOCC3)c(NC(=O)COc3ccc(C)cc3)c2)c2ccccc12 [CBK266103] | 97.6
59 | Cc1cccc(Nc2nc(N)nc(CSc3nccn3C)n2)c1 [CBK266105] | 98.7
60 | CCc1ccc(Oc2c(CC(=O)O)oc3cc(O)c(CC)cc3c2=O)cc1 [CBK266108] | 106
61 | COc1ccccc1NC(=O)c1ccc(OC(C)C(=O)O)cc1 (centres unmarked) [CBK266109] | 106
62 | O=C(O)CCN/C(=N\S(=O)(=O)c1ccccc1)c1ccccc1 [CBK266111] | 92.2
63 | Cc1nn(Cc2ccccc2)c(C)c1NC(=O)CSc1nc2c(c(C(F)(F)F)n1)CCc1ccccc1-2 [CBK266112] | 105
64 | O=C(Cn1nc(C(F)(F)F)c2c1CCC2)N1CCN(Cc2ccccc2)CC1 [CBK266113] | 109
65 | Cc1ccc(N2CCN(CC(O)COc3ccc(C(=O)c4ccc(Cl)cc4)cc3)CC2)c(C)c1 (centres unmarked) [CBK266117] | 110
66 | O=C(CSc1nnc(Cc2ccccc2)o1)Nc1c(Cl)cc(Cl)cc1Cl [CBK266119] | 99.8

Row | SMILES | viability at 28.5 h, 10 µM [%]
67 | Nc1nnc(SCC(=O)c2ccc3ccccc3c2)s1 [CBK266120] | 97.7
68 | O=C(CSc1nc(-c2ccc(F)cc2)cc(C(F)(F)F)n1)NCCN1CCOCC1 [CBK266121] | 99.6
69 | O=C(Nc1ccc(Cl)cc1)Nc1cc(S(=O)(=O)N2CCCC2)ccc1Cl [CBK266122] | 98
70 | COc1ccc(NS(=O)(=O)c2ccc(NC(=O)c3nc4nc(C)cc(C(F)F)n4n3)cc2)cc1 [CBK266123] | 91.4
71 | CN1CCN(c2ccc(NC(=O)c3ccc(OCc4ccccc4)cc3)cc2)CC1 [CBK266124] | 99.6
72 | Cc1sc(NC(=S)NC(=O)COc2ccc(Br)cc2Cl)c(C(N)=O)c1C [CBK266127] | 111
73 | COc1ccc(S(=O)(=O)Nc2ccc(C(=O)O)cc2)cc1[N+](=O)[O-] [CBK266130] | 103
74 | CC(=O)Nc1ccc(S(=O)(=O)/N=C(\Nc2nc(C)cc(C)n2)Nc2ccccc2F)cc1 [CBK266134] | 106
75 | CCn1c(SCC(=O)N2CCC(C(N)=O)(N3CCCCC3)CC2)nnc1-c1ccccc1 [CBK266135] | 95.2
76 | O=C(O)CNS(=O)(=O)c1cc(Cl)c(Cl)cc1Cl [CBK266136] | 96.6
77 | O=C(COc1ccc2oc3c(c2c1)CCCC3)Nc1cccc2cccnc12 [CBK266137] | 101
78 | CN(C)CCNc1ccc(-c2nnc(O)c3ccccc23)cc1[N+](=O)[O-] [CBK266143] | 111
79 | CCCc1cc(O)nc(SCC(=O)Nc2cc3c(cc2C(C)=O)OCO3)n1 [CBK266144] | 92
80 | Cn1c(CNC(=O)c2ccc(Cl)cc2)nnc1SCC(=O)c1ccc(Br)cc1 [CBK266145] | 88.4
81 | CCNS(=O)(=O)c1ccc(NC(=O)c2nc3nc(C)cc(C(F)F)n3n2)cc1 [CBK266146] | 104
82 | O=C(C1=C(O)C(=O)N(CCCN2CCOCC2)C1c1cccnc1)c1cc2ccccc2o1 (centres unmarked) [CBK266147] | 104
83 | COc1ccc(-c2cc(C(F)(F)F)nc(SCC(=O)Nc3cccnc3)n2)cc1OC [CBK266148] | 103
84 | Cc1ccc(C)n1NC(=O)c1ccccc1[N+](=O)[O-] [CBK266151] | 104
85 | O=C(CSc1nnc(-c2cccnc2)n1-c1ccc(Br)cc1)Nc1ccc2c(c1)OCO2 [CBK266153] | 93.8
86 | O=C(Nc1ccc(I)cc1C(=O)Nc1cccnc1)c1ccccc1Cl [CBK266154] | 98.5
